Series [1] can be described thus: Test for measuring dissolution rate (rotating disk method). Format: physicochemical. Conditions: 2nd fluid pH 6.8, 37° C., 50 rpm. As to the method:
The dissolution rates of the following crystals were measured under the conditions described below by the rotating disk method (see, J. H. Woods et al., J. Pharm. Soc., 54, 1068 (1955)): a crystalline form of the free carboxamide (obtained in Preparation Example 1), a crystalline form of the hydrochloride of the carboxamide (obtained in Example 1), a crystalline form of the hydrobromide of the carboxamide (obtained in Example 2), a crystalline form of the methanesulfonate (hereunder, referred to as “mesylate”) of the carboxamide (Form A) (obtained in Example 5), a crystalline form of the mesylate of the carboxamide (Form C) (obtained in Example 7) and a crystalline form of the ethanesulfonate (hereunder, referred to as “esylate”) (Form β) (obtained in Example 12). The dissolution rates were calculated based on a range in which linearity was maintained in the relation between concentration and time at the initial stage of dissolution.
(Rotating Disk Method Conditions)
• Solvent: “2nd fluid” (pH 6.8, 500 mL) as described in Japanese Pharmacopoeia 14th Edition, General Tests (disintegration test) • Temperature: 37° C. • Disk rotation speed: 50 rpm • Area of powder contacting with solvent on disk: 1 cm^2 • Sampling amount: approx. 1 mL (HPLC Conditions) • Column: Cadenza CD-18 (Imtakt Corporation; inner diameter 4.6 mm, Column length 100 mm, particle size 3 μm) • Column temperature: 40° C. • Flow rate: 1.0 mL/min • Mobile phase:
Concentration of solution B: 20% • Injection amount: 100 μL • Detection: ultraviolet absorbance photometer (wavelength: 252 nm) • Temperature of auto sampler: 25° C. [Results]

Series [2] is described as follows: Study of pharmacokinetics in beagle dogs. It is filed as in vivo. The settings on record: mean ± standard error. As to the method:
A crystalline form of the free from of the carboxamide (obtained in Preparation Example 1), a crystalline form of the hydrobromide of the carboxamide (obtained in Example 2) and a crystalline form of the mesylate of the carboxamide (Form A) (obtained in Example 5) were grounded in a mortar, encapsulated in a gelatin capsule, and then administered orally to beagle dogs (n=3). After administration, 10 mL of water was further administered orally. The dose was set such that it was equivalent to 3 mg/kg as a free form, and the beagle dogs were fasted from the day before administration, and fed again 8 hours after the administration.
To calculate bioavailability (BA), a test was conducted using a single intravenous administration. More specifically, a crystalline form of the free from of the carboxamide was dissolved in a solution containing 10% dimethyl sulfoxide, 50% polyethylene glycol 400 and 40% 0.1 M aqueous solution of hydrochloric acid and administered intravenously through cephalic vein of the foreleg.
The plasma concentration of the carboxamide was measured by HPLC-UV method after sampling blood from cephalic vein of the foreleg. Based on the concentration, pharmacokinetic parameters were calculated for each individual by the moment method. Further, based on the calculated parameters, the mean value and standard error thereof were calculated.

The mark [3] stands for this setting: beagle dogs n=3, oral, gelatin capsule, 3 mg/kg as free form, fasted.

Compound `Br.COc1cc2nccc(Oc3ccc(NC(=O)NC4CC4)c(Cl)c3)c2cc1C(N)=O` [hydrobromide, Hydrobromide of 4-(3-chloro-4-(cyclopropylaminocarbonyl)aminophenoxy)-7-methoxy-6-quinolinecarboxamide] displayed a dissolution rate in series [1] of 8.7 μg/min/cm^2. Further, the BA in series [2] (beagle dogs n=3, oral 3 mg/kg as free form vs single intravenous administration of free form) is on record as 73.5 ± 2.3%. For the same compound, in series [2] (setting [3]), the AUC0-24hr was found to be 4800 ± 200 ng·h/mL, the “Maximum plasma concentration (Cmax)” value was 480.4 ± 31.4 ng/mL, the “plasma concentration after 24 hours (C24hr)” value stood at 100.5 ± 81.7 ng/mL and the “time to reach maximum plasma concentration (Tmax)” value came out at 2.67 ± 0.7 h.

For the origin of these results see patent US7612208B2, “Crystalline form of the salt of 4-(3-chloro-4-(cyclopropylaminocarbonyl)aminophenoxy)-7-methoxy-6-quinolinecarboxamide or the solvate of the salt and a process for preparing the same” (Eisai R&D Management Co., Ltd., priority 2003, dated 2009).
